{"source": "patent US8278066B2", "about": "“Truncated somatostatin receptors” (Board of Regents, The University of Texas System, priority 2001, dated 2012)", "key": {"[1]": {"molecular_target": "full length SSTR2A fusion protein (HT1080 clones 21, 3, 11) (Homo sapiens, UniProt P30874)", "sequence (P30874 whole entry, the tested form may be a part)": "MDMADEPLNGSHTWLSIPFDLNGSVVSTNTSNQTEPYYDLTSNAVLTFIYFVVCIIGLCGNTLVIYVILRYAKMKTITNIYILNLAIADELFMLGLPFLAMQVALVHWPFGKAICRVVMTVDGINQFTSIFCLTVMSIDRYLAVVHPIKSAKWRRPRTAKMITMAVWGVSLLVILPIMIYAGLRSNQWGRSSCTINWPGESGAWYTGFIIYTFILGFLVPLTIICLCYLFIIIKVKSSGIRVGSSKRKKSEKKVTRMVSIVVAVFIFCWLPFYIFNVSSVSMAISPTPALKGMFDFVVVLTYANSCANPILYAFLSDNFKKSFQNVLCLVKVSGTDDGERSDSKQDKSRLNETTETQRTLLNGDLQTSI"}, "[2]": {"molecular_target": "intracellular tail minus SSTR2A fusion protein (HT1080 clones tail-1, tail-4) (Homo sapiens, UniProt P30874)", "sequence (P30874 1-314)": "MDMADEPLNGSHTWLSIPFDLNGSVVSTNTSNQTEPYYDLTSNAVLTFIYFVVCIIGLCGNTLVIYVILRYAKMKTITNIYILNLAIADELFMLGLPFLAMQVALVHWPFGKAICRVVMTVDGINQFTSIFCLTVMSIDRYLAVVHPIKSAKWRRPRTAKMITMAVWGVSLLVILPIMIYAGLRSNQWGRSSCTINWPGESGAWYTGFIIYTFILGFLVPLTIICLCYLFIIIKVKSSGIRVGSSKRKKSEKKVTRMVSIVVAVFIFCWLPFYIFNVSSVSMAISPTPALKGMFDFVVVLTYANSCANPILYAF"}}}
{"substance": "^111In-octreotide", "values": [{"measurement": "Specific binding, order among clones", "setting": "[1]", "result": "greater for clone 21 than 3 than 11"}, {"measurement": "counts per minute bound", "setting": "[1]", "result": "more counts per minute without the addition of cold somastotin-28 then with its addition"}, {"measurement": "counts per minute bound", "setting": "[2]", "result": "more counts per minute without the addition of cold somastotin-28 then with its addition"}]}
